Measurements from patent publication US20260159854A1, “NOVEL CARRIERS FOR NUCLEIC ACID AND/OR PROTEIN DELIVERY” (LUDWIG-MAXIMILIANS-UNIVERSITÄT MÜNCHEN, priority 2022, published 2026).

Columns and labels:
[1] = Particle size, polydispersity and zeta potential measurement (DLS, ELS); type: physicochemical; parameters: Zeta / Size: unit not given here
Method: 6.6 Particle Size and Zeta Potential Measurement for pDNA, mRNA, siRNA, Cas9 mRNA/sgRNA and Cas9 mRNA/sgRNA/ssDNA Polyplexes as Well as mRNA LNPs
Measurements of size and zeta potential were performed with a Zetasizer Nano ZS (Malvern Instruments, Malvern, Worcestershire, U.K.) in a folded capillary cell (DTS1070) by dynamic and electrophoretic laser-light scattering (DLS, ELS). […] Samples were measured three times with six sub runs per measurement. For measurement of the zeta potential, all samples were diluted to 800 μL with HBG or HEPES (for siRNA polyplexes) directly before measurement. Parameters were identical to the size measurement apart from an equilibration time of 60 sec. Three measurements with 15 sub runs lasting 10 sec each were performed, and zeta potentials were calculated by the Smuchowski equation.

N2a/eGFPLuc cells = assay: eGFP knock out efficiency of Cas9 mRNA/sgGFP1 polyplexes by flow cytometry; type: cell-based, murine; settings: after 72 h
Method: For Cas9 mRNA/sgRNA polyplexes, CleanCap® Cas9 mRNA (5moU) (Trilink Biotechnologies, San Diego, CA, USA) and sgRNA at a fixed weight ratio of 1:1 were mixed and diluted in HBG.
Calculated amounts of aminolipid at indicated N/P (nitrogen/phosphate) ratios (see above) were diluted in separate tubes of HBG. Equal volumes of nucleic acid solution and aminolipid solution were mixed by rapid pipetting and incubated 40 min at RT in a closed Eppendorf reaction tube.
Cas9 mRNA/sgRNA polyplex treatments were performed in triplicate in 96-well plates. N2a eGPFLuc cells were seeded 24 h prior to transfection (5000 cells/well). On the next day, the medium was replaced with 80 μL of fresh pre-warmed medium containing 10% (v/v) FBS. The nanoparticles were prepared as described above, and the volumes of 20, 10, and 5 μL of polyplex solution (2.5 μg/mL Cas9 mRNA and 2.5 μg/mL sgGFP1) were added. 20 μL HBG buffer per well was used as negative control. After 24 h of treatment, the cells were expanded, and the medium was replaced by 100 μL of fresh pre-warmed medium and incubated for additional 48 h. […] Only isolated viable cells were evaluated. The eGFP knock out efficiency was determined as the percentage of eGFP negative cells normalized to the control measurements with HBG buffer-treated cells.

N2a cells = assay: Co-delivery efficiency of mRNA/pDNA polyplexes by flow cytometry; type: cell-based, murine; settings: N/P 18, 25 and 50 ng combined nucleic acid/well
Method: CleanCap® mCherry mRNA (5moU) (Trilink Biotechnologies, San Diego, CA, USA) and pEGFP-N1 pDNA (Clontech Laboratories, Inc. (now Takara Bio USA, Inc., San Jose, CA, USA)) at a fixed weight ratio of 1:1 were mixed and diluted in HBG. Calculated amounts of aminolipid at indicated N/P (nitrogen/phosphate) ratios (see above) were diluted in separate tubes of HBG. Equal volumes of nucleic acid solution and aminolipid solution were mixed by rapid pipetting and incubated 40 min at RT in a closed Eppendorf reaction tube. The final concentration of nucleic acid in the polyplex solution was 5 μg/mL (2.5 μg/mL mCherry mRNA plus 2.5 μg/mL pEGFP-N1 pDNA).
mRNA/pDNA polyplex treatments were performed in triplicate in 96-well plates. N2a cells were seeded 24 h prior to transfection (10,000 cells/well). On the next day, the medium was replaced with 80 μL of fresh pre-warmed medium containing 10% (v/v) FBS. The nanoparticles were prepared as described above, and the volumes of 10 and 5 μL of polyplex solution (2.5 μg/mL mCherry mRNA and 2.5 μg/mL pEGFP-N1 pDNA) were added. 20 μL HBG buffer per well was used as negative control. After 24 h of treatment, cells were collected and re-suspended in PBS solution containing 10% (v/v) FBS (FACS buffer) for flow cytometric evaluation. All samples were analyzed by flow cytometry using a CytoFLEX S Flow Cytometer (Beckman Coulter, Brea, CA, USA). Shortly before the measurement, 1 ng/μL 4′, 6-diamidino-2-phenylindole (DAPI) was added and used to discriminate between viable and dead cells. The cellular fluorescence was assayed by excitation of DAPI at 405 nm and detection of emission at 450 nm. Only isolated viable cells were evaluated. Gates were set compared to control measurements with HBG buffer-treated cells. […] Flow cytometry data were analyzed using FlowJo™ v10.8 flow cytometric analysis software by FlowJo, LLC (Becton, Dickinson and Company, U.S.). The cellular fluorescence expression was assayed by excitation at 561 nm and 488 nm, the detection of emission at 610 nm and 530 nm for mCherry and eGFP, respectively.

[2] = tested on: N2a/eGFPLuc, DU145/eGFPLuc, and KB/eGFPLuc; assay: Gene silencing activity of siRNA polyplexes in three cell lines; type: cell-based, murine, human; settings: N/P 18, 15.6 ng siRNA/well, 48 h
[3] = tested on: N2a/eGFPLuc, KB/eGFPLuc, and CT26/eGFPLuc; assay: Gene silencing activity of siRNA LNPs in three cell lines; type: cell-based; settings: N/P 9, 63 and 31 ng siRNA/well, 48 h
Huh7 cells [4] = assay: Luciferase gene expression of mRNA LNPs in Huh7 cells; type: cell-based, human; settings: 62.5 ng mRNA/well, N/P 9
[5] = tested on: N2a tumor-bearing A/J mice; assay: Ex vivo luciferase expression after intravenous injection of mRNA polyplexes; type: in vivo; settings: tumors, lungs, liver, spleen
Method: Neuro2a cells (10^6 cells/150 μL PBS) were inoculated subcutaneously into the left flank of 6-week-old female A/J mice (Envigo RMS GmbH, Dusseldorf, Germany). Mice were randomly divided into groups of three (in the case of mRNA LNPs) or five (in the case of mRNA polyplexes) and were housed in isolated ventilated cages under specific pathogen free conditions with a 12 h day/night interval, and food and water ad libitum. Weight and general well-being were monitored continuously. Tumor size was measured with a caliper and determined by formula: a*b^2/2 (a=longest side of the tumor; b=widest side vertical to a). When tumors reached a size of 250-500 mm3, the experiments were performed by intravenous tail vein injection of polyplexes or LNPs formed as described in 6.1 and 6.3, containing 1 μg, 3 μg or 10 μg of stabilized firefly luciferase encoding mRNA (CleanCap™ FLuc mRNA (5moU); Trilink Biotechnologies, San Diego, CA, USA) in 150 μL HBG. Polyplexes containing 10 μg mRNA were dialyzed for 1 h at 4° C. against HBG (dialysis membrane MWCO 100-500 Da; Spectra/Por®, Carl Roth, Karlsruhe, Germany) prior to application to remove small amounts of ethanol. […] The luciferase gene expression was determined as described above and is presented as relative light units (RLU) per gram (g) tumor/organ.
To evaluate luciferase mRNA delivery by an ex vivo luciferase gene expression assay, organ and tumor tissues were homogenized in Luciferase Cell Culture Lysis Reagent 1× (Promega, Mannheim, Germany), supplemented with 1% (v/v) protease and phosphatase inhibitor cocktail (Sigma-Aldrich, Munich, Germany) using a tissue and cell homogenizer (FastPrep®-24, MP Biomedicals, USA). […] Luciferase activity in 25 μL supernatant was measured in a Centro LB 960 plate reader luminometer (Berthold Technologies, Bad Wildbad, Germany) for 10 sec after addition of 100 μL/well of a LAR buffer solution (20 mM glycylglycine, 1.0 mM MgCl2, 0.10 mM EDTA, 3.3 mM DTT, 0.55 mM ATP, and 0.27 mM coenzyme A; pH 8-8.5) supplemented with 5% (v/v) of a mixture of 10 mM luciferin and 29 mM glycylglycine.

Huh7 cells [6] = assay: Luciferase expression assay of pDNA polyplexes in Huh7 cells; type: cell-based, human
[7] = tested on: KB, U87, and HCT116 cells; settings: 10 ng poly(I:C) per well, 48 h, especially in KB cells
Method: The cytotoxic effect of double-stranded RNA (poly(I:C)) was evaluated in cancer cells using LAF carriers 1611, 1719, and 1752. The toxicity induced by poly(I:C) and carriers were differentiated by using non-toxic single-stranded poly(I). LPEI and the LAF-Stp carriers were transfected in medium supplemented with 10% (v/v) FBS. In the case of lipofectamine, particles were prepared and transfected according to the manufacturer's protocol (particle formation as well as transfection in serum-free medium; ThermoFisher). At 4 h after lipofectamine transfection, medium was replaced with fresh medium supplemented with 10% (v/v) FBS followed by incubation of 48 h in total. The percentage of cell survival was calculated relative to the HBG buffer-treated control cells (n=3, mean+SD).

[8] = mRNA polyplexes, 12.5 μg/mL CleanCap FLuc mRNA (5moU), N/P 12 (1611, 1719, 1722, 1732), N/P 24 (1614), N/P 18 (1621, 1747)
[9] = mRNA LNPs, 12.5 μg/mL CleanCap FLuc mRNA (5moU), N/P 9, molar ratios see Table A
[10] = siRNA LNPs, siCtrl 25 μg/mL, N/P 9
[11] = Cas9 mRNA/sgDMDex23 polyplexes, N/P 24, combined nucleic acid 12.5 μg/mL
[12] = PEGylated pDNA polyplexes 25% PEG, 10 μg/mL pCMVLuc
[13] = Targeted pDNA polyplexes 12.5% PEG 2k, 12.5% PEG-GE11, 10 μg/mL pCMVLuc
[14] = Unmodified pDNA polyplexes 0%, 10 μg/mL pCMVLuc
[15] = dialyzed mRNA polyplexes for in vivo application, 66.7 μg/mL mRNA, 1611 N/P 18, 1719 N/P 12
[16] = pDNA polyplexes, N/P 12, 10 μg/mL pCMVLuc
[17] = poly(I) polyplexes, 12.5 μg/mL, 1611 N/P 18, 1719 N/P 12, 1752 N/P 24
[18] = poly(I:C) polyplexes, 12.5 μg/mL, 1611 N/P 18, 1719 N/P 12, 1752 N/P 24

Substance: K(8Oc)2-Stp2-K[K(8Oc)2] [compound 1732]
- Pdl [1, 8]: 0.304
- Z-average [1, 8]: 98.2 nm
- Zeta potential [1, 8]: 26.2 mV
- eGFP knock-out efficiency of Cas9 mRNA/sgRNA polyplexes (N2a/eGFPLuc cells): good knock-out efficiency

Substance: K(12Oc)2-Stp-K[K(12Oc)2] [compound 1716]
- Pdl [1, 9]: 0.150
- Z-average [1, 9]: 200.9 nm
- Zeta potential [1, 9]: −0.25 mV
- mCherry mRNA/eGFP pDNA co-expression (co-delivery efficiency) (N2a cells): most potent structures
- gene silencing efficiency of siRNA polyplexes in three cell lines [2]: great performance in all three tested cell lines

Substance: K[K(10Oc)2]2-Stp [compound 1762]
- Pdl [1, 10]: 0.104
- Z-average [1, 10]: 244.3 nm
- Zeta potential [1, 10]: −3.2 mV
- gene silencing (eGFP silencing) of siRNA LNPs [3]: approximately the same potential for eGFP silencing

Substance: K[K(12He)2]2-Stp [compound 1754]
- Pdl [1, 9]: 0.187
- Z-average [1, 9]: 171.0 nm
- Zeta potential [1, 9]: 1.11 mV
- Pdl [1, 10]: 0.144
- Z-average [1, 10]: 173.0 nm
- Zeta potential [1, 10]: 2.2 mV
- RLU values of mRNA LNPs relative to DLin-MC3-DMA (Huh7 cells [4]): 10 fold

Substance: K[K(14He)2]2-Stp [compound 1755]
- Pdl [1, 9]: 0.220
- Z-average [1, 9]: 149.6 nm
- Zeta potential [1, 9]: 2.26 mV
- Pdl [1, 10]: 0.287
- Z-average [1, 10]: 160.6 nm
- Zeta potential [1, 10]: 3.4 mV
- luciferase expression of mRNA LNPs relative to SM-102 (Huh7 cells [4]): 2 fold

Substance: K[K(16Bu)2]2-Stp [compound 1753]
- Pdl [1, 9]: 0.227
- Z-average [1, 9]: 142.1 nm
- Zeta potential [1, 9]: 3.39 mV
- Pdl [1, 10]: 0.292
- Z-average [1, 10]: 195.1 nm
- Zeta potential [1, 10]: 2.6 mV
- gene silencing (eGFP silencing) of siRNA LNPs [3]: approximately the same potential for eGFP silencing

Substance: [K(12Oc)]2-Stp2-[K(12Oc)]2 [compound 1719]
- Pdl [1, 11]: 0.268
- Z-average [1, 11]: 80.8 nm
- Zeta potential [1, 11]: 42.6 mV
- Pdl [1, 12]: 0.13
- Size [1, 12]: 76
- Zeta [1, 12]: 10.5
- Pdl [1, 13]: 0.13
- Size [1, 13]: 88
- Zeta [1, 13]: 10.5
- Pdl [1, 14]: 0.09
- Size [1, 14]: 77
- Zeta [1, 14]: 29.5
- Pdl [1, 15]: 0.176 ± 0.016
- Zeta potential [1, 15]: 30.7 ± 1.7 mV
- Pdl [1, 8]: 0.225
- Z-average [1, 8]: 75.0 nm
- Zeta potential [1, 8]: 33.0 mV
- Pdl [1, 16]: 0.220 ± 0.001
- Z-average [1, 16]: 110.4 ± 1.89 nm
- Zeta potential [1, 16]: 13.0 ± 0.5 mV
- Pdl [1, 17]: 0.32 ± 0.08
- Z-average [1, 17]: 86.8 ± 11.4 nm
- Zeta potential [1, 17]: 23.2 ± 0.4 mV
- Pdl [1, 18]: 0.25 ± 0.05
- Z-average [1, 18]: 95.9 ± 2.1 nm
- Zeta potential [1, 18]: 13.8 ± 2.9 mV
- in vivo luciferase expression of mRNA polyplexes [5]: great in vivo performance
- RLU values of targeted polyplexes in comparison to shielded polyplexes (Huh7 cells [6]; N/P 12, pDNA dose 50 ng/well): 6.5 fold
- RLU values of targeted polyplexes in comparison to shielded polyplexes (Huh7 cells [6]; N/P 12, pDNA dose 100 ng/well): 4.4 fold
- cell viability after poly(I:C) polyplex treatment [7]: significant decrease in the cell viability
